Measurements: patent EP0184291B1, “Polyether antibiotic A80190” (ELI LILLY AND COMPANY, priority 1984, dated 1986)
Values after ≈ are worked out from the molar mass of the structure shown. Values joined by “and” are separate entries in the source; they are usually repeats but may differ in a detail not shown here. Identical values can stand only once. Marks after values point to notes of the source that are not given here.

Columns and labels:
[1] = test system: blowfly larvae; assay: Insecticidal activity; format: in vivo; conditions: read-out: active at levels as low as
Excerpt: (§1) The A80190 compounds are also useful as insecticides and acaricides. For example, A80190 is active against the following insects as levels as low as the level indicated in parenthesis: mosquito larvae (<50 ppm), blowfly larvae (35 ppm), adult housefly (35 ppm), and Mexican bean beetle and southern armyworm (<100 ppm). A80190 is also active against mites such as two-spotted spider mite when applied at a rate as low as 25 ppm.

[2] = test system: adult housefly; assay: Insecticidal activity; format: in vivo; conditions: Musca domestica; read-out: active at levels as low as
Excerpt: as §1

[3] = test system: Mexican bean beetle; assay: Insecticidal activity; format: in vivo; conditions: Epilachna varivestis; read-out: active at levels as low as
Excerpt: as §1

[4] = test system: southern armyworm; assay: Insecticidal activity; format: in vivo; conditions: Spodoptera eridania; read-out: active at levels as low as
Excerpt: as §1

[5] = test system: mosquito larvae; assay: Insecticidal activity; format: in vivo; conditions: read-out: active at levels as low as
Excerpt: as §1

[6] = test system: volatile-fatty-acid (VFA) concentrations; assay: Ruminant feed-utilization efficiency test (VFA in flasks, method of U.S. Patent 3,794,732); set-up: species or system ruminants; conditions: ratio treated flasks to control flasks
Excerpt: The efficiency of feed use can be monitored by observing the production and concentration of propionate compounds in the rumen using the method described by Arthur P. Raun in U.S. Patent 3,794,732 (see especially Example 5).

[7] = test system: Eimeria acervulina (Lilly strain 59), Eimeria maxima (strain FS-177) and Eimeria tenella (strain FS-155); assay: Coccidiosis test in broiler chicks, A80190 with nicarbazin (Test 1); format: in vivo; conditions: Nicarbazin 0 p.p.m. in ration
[8] = test system: pigweed; assay: Herbicidal activity; format: in vivo; conditions: 2 lb/acre (200 gpa), either pre-emergence or post-emergence
Excerpt: (§2) In another aspect, the A80190 compounds have herbicidal activity. For example, A80190 is active against crabgrass, mustard and pigweed at 2 lb/acre (200 gpa) either pre-emergence or post-emergence.

[9] = test system: mustard; assay: Herbicidal activity; format: in vivo; conditions: 2 lb/acre (200 gpa), either pre-emergence or post-emergence
Excerpt: as §2

[10] = test system: crabgrass; assay: Herbicidal activity; format: in vivo; conditions: 2 lb/acre (200 gpa), either pre-emergence or post-emergence
Excerpt: as §2

[11] = Ion-transport (ionophore) test
[12] = test system: Treponema hyodysenteriae; assay: Growth inhibition, swine dysentery agent; format: cell-based; conditions: Brachyspira hyodysenteriae; read-out: inhibits the growth at levels as low as
Excerpt: In another aspect the A80190 compounds are useful in the treatment of swine dysentery. A80190 inhibits the growth of Treponema hyodysenteriae, a causative agent of swine dysentery, at levels as low as 0.39 mcg/ml. A preferred method of administration to swine is by incorporation of an appropriate amount of an A80190 compound into the feed ration or drinking water. An appropriate amount will relate to whether the treatment is to prevent or to cure infection. Usually, a lower concentration of active compound is needed to prevent infection than is required for to eliminate infection in animals already afflicted. In general, amounts in the range of from about 20 to about 100 grams of A80190 compound per ton of feed are effective to prevent infection. Amounts in the range of from about 100 to about 500 g of A80190 compound per ton of feed are recommended for treating swine suffering from dysentery. These amounts provide from about 1 to about 5 mg/kg of body weight per day (prophylactic treatment) or from about 5 to about 25 mg/kg of body weight per day (treatment of infected animal). When added to the drinking water, amounts of from about 0.04 to about 0.2 g (prophylactic) or from about 0.2 to about 1 g (therapeutic) of A80190 compound per gallon of water are recommended.

[13] = test system: Peptococcus asaccharolyticus 1302; assay: Agar-dilution assay, anaerobic bacteria; format: cell-based; conditions: Peptoniphilus asaccharolyticus, 24-hour incubation
Protocol: (§3) One important aspect of the antimicrobial activity of A80190 compounds relates to their activity against anaerobic bacteria. The minimal inhibitory concentrations (MIC's) at which A80190 inhibits various anaerobic bacteria, as determined by standard agar-dilution assay, are summarized in Table VII. End points were read after 24-hour incubation.

[14] = test system: Bacteroides vulgatis 1211; assay: Agar-dilution assay, anaerobic bacteria; format: cell-based; conditions: 24-hour incubation
Protocol: as §3

[15] = test system: Bacteroides fragilis 111; assay: Agar-dilution assay, anaerobic bacteria; format: cell-based; conditions: 24-hour incubation
Protocol: as §3

[16] = test system: Bacteroides fragilis 1936B; assay: Agar-dilution assay, anaerobic bacteria; format: cell-based; conditions: 24-hour incubation
Protocol: as §3

[17] = test system: Fusobacterium necrophorum 6054A; assay: Agar-dilution assay, anaerobic bacteria; format: cell-based; conditions: 24-hour incubation
Protocol: as §3

[18] = test system: Petococcus prevoti 1281; assay: Agar-dilution assay, anaerobic bacteria; format: cell-based; conditions: 24-hour incubation
Protocol: as §3

[19] = test system: Peptostreptococcus intermedius 1624; assay: Agar-dilution assay, anaerobic bacteria; format: cell-based; conditions: 24-hour incubation
Protocol: as §3

[20] = test system: Bacteroides corrodens 1874; assay: Agar-dilution assay, anaerobic bacteria; format: cell-based; conditions: Eikenella corrodens, 24-hour incubation
Protocol: as §3

[21] = test system: Caenorhabditis elegans; assay: Anthelmintic activity; format: in vivo; conditions: read-out: active at levels as low as
Excerpt: The A80190 compounds are also anthelmintic agents. For example, A80190 is active against Caenorhabditis elegans at levels as low as 20 ppm.

[22] = test system: Eimeria tenella; assay: In vitro tissue culture anticoccidial screen; format: cell-based; conditions: Concentration 5 µg/ml
Excerpt: Anticoccidial activity is an important property of the A80190 compounds. Table VIII summarizes the results of an in vitro tissue culture screen of A-80190 compounds vs. Eimeria tenella.

[23] = pKa determination; format: physicochemical; conditions: 66% aqueous dimethylformamide; free acid form
Excerpt: Antibiotic A80190 has been assigned structure 1 based on X-ray crystallographic studies.

In the case of CC[C@@H](O)[C@]1(C)C[C@H](C)[C@@](O)([C@H]2C[C@H](C)[C@H]([C@]3(C)C[C@@H](O[C@H]4CC[C@H](OC)[C@@H](C)O4)[C@H]([C@@H]4CC[C@@]5(O[C@H]([C@@H](C)[C@@H](OC)[C@H](C)C(=O)O)[C@H](C)[C@@H](OC)[C@H]5C)O4)O3)O2)O1 [Example A80190], the minimal effective concentration [1] is reported as 35 µg/mL, the minimal effective concentration [2] is reported as 35 µg/mL and the minimal effective concentration [3] is reported as < 100 µg/mL. For the same molecule, the minimal effective concentration [4] was < 100 µg/mL, the minimal effective concentration [5] was < 50 µg/mL and the “Molar % Acetate” value ([6]; Dosage 0.3 mcg/ml) was 0.970. For the same molecule, the “Molar % Butyrate” value ([6]; Dosage 0.3 mcg/ml) was 0.819, the “Molar % Propionate” value ([6]; Dosage 0.3 mcg/ml) was 1.220* and the “Total VFA/ Control VFA mM/L” value ([6]; Dosage 0.3 mcg/ml) was 0.967. The “Molar % Acetate” value ([6]; Dosage 1 mcg/ml) was 0.926 and 0.986 and 0.892 and 1.016, the “Molar % Butyrate” value ([6]; Dosage 1 mcg/ml) was 0.529 and 0.851 and 0.813 and 0.706 and the “Molar % Propionate” value ([6]; Dosage 1 mcg/ml) was 1.566* and 1.185* and 1.403* and 1.247*. For the same molecule, the “Total VFA/ Control VFA mM/L” value ([6]; Dosage 1 mcg/ml) was 0.913 and 0.916 and 0.887 and 0.857, the “Molar % Acetate” value ([6]; Dosage 3 mcg/ml) was 0.998 and the “Molar % Butyrate” value ([6]; Dosage 3 mcg/ml) was 0.611. For the same molecule, the “Molar % Propionate” value ([6]; Dosage 3 mcg/ml) was 1.368*, the “Total VFA/ Control VFA mM/L” value ([6]; Dosage 3 mcg/ml) was 0.963 and the “CECAL LESION SCORES” value ([7]; A80190 4 p.p.m.) was 2.63. For the same molecule, the “INTESTINAL LESION SCORES” value ([7]; A80190 4 p.p.m.) was 8.63, the “WEIGHT GAIN” value ([7]; A80190 4 p.p.m.) was 236 grams/per chicken and the “CECAL LESION SCORES” value ([7]; A80190 8 p.p.m.) was 1.75. The “INTESTINAL LESION SCORES” value ([7]; A80190 8 p.p.m.) was 5.94, the “WEIGHT GAIN” value ([7]; A80190 8 p.p.m.) was 265 grams/per chicken and the “CECAL LESION SCORES” value ([7]; A80190 12 p.p.m.) was 1.19. The “INTESTINAL LESION SCORES” value ([7]; A80190 12 p.p.m.) was 3.50, the “WEIGHT GAIN” value ([7]; A80190 12 p.p.m.) was 251 grams/per chicken and the “CECAL LESION SCORES” value ([7]; A80190 16 p.p.m.) was 0.19. The “INTESTINAL LESION SCORES” value ([7]; A80190 16 p.p.m.) was 1.19, the “WEIGHT GAIN” value ([7]; A80190 16 p.p.m.) was 272 grams/per chicken and the “CECAL LESION SCORES” value ([7]; A80190 20 p.p.m.) was 0.0. The “INTESTINAL LESION SCORES” value ([7]; A80190 20 p.p.m.) was 0.0, the “WEIGHT GAIN” value ([7]; A80190 20 p.p.m.) was 261 grams/per chicken and the herbicidal activity [8] was “active”. The herbicidal activity [9] was “active”, the herbicidal activity [10] was “active” and the “ionophorous effect, comparison of cations” value ([11]; 0.2 µg/ml concentration) was “even greater ionophorous effect with Cs⁺ than with Na⁺”. For the same molecule, the ionophorous activity ([11]; 0.5 µg/ml concentration) was “showed ionophorous activity”, the “ionophorous activity, comparison of cations” value ([11]; 0.5 µg/ml concentration) was “its activity with Na⁺, K⁺ and Rb⁺ was better than that with Cs⁺ or Li⁺” and the MIC [12] was 0.39 µg/mL (≈ 0.47 µM). For the same molecule, the MIC [13] was 1 µg/mL (≈ 1.21 µM), the MIC [14] was 16 µg/mL (≈ 19.3 µM) and the MIC [15] was > 128 µg/mL. For the same molecule, the MIC [16] was > 128 µg/mL, the MIC [17] was 16 µg/mL (≈ 19.3 µM) and the MIC [18] was < 0.5 µg/mL. For the same molecule, the MIC [19] was 1 µg/mL (≈ 1.21 µM), the MIC [20] was > 128 µg/mL and the minimal effective concentration [21] was 20 µg/mL. The “Activity vs. Eimeria tenella In Vitro” value [22] was “C^a” and the pKa [23] was 6.2.
